Reference: PubChem BioAssay AID2060885 (Molecular Pharmacology Branch, DTP, NCI, 2025)

Test system: NCI-H23 complex spheroids with HUVEC/MSC, viability
Assay: Anticancer human tumor NCI-H23 cell line growth inhibition [RAS];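 on viability, T/C: 100% = DMSO vehicle control viability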
Conditions: for IC50: curve of first compound; for viability, T/C: stronger effect = lower value
From the text: RAS pathway inhibitors in Combinations in Complex Spheroids
A high-throughput screen of multi-cell type tumor spheroids was designed to identify active combinations of RAS pathway inhibitors and targeted small molecules. Complex spheroids include a stromal component modeled by human endothelial cells (HUVEC) and fibroblasts modeled by human mesenchymal stem cells (MSCs). The concentration ranges selected for each drug and investigational agent were based upon clinically achievable concentrations if the clinical Cmax of the agent was known.
Compounds. The drugs and investigational agents: abemaciclib (NSC768073), cobimetinib (NSC768068), divarasib (GDC6063, NSC841802), docetaxel (NSC628503), GDC-1971 (RLY-1971, NSC841576), gemcitabine (NSC613327), inavolisib (NSC800729), ipatasertib (NSC767898), KB-0742 (NSC834161), MRTX-1133 (NSC836407), osimertinib (NSC779217), RMC-4630 (NSC839698), RMC-6236 (NSC851965), RMC-6291 (NSC852671), Ro-3306 (NSC812927), sapanisertib (NSC764658), SN-38 (NSC673596), staurosporine (NSC755774), SY5609 (NSC837396), and tovorafenib (DAY101, NSC766906), were obtained from the National Cancer Institute (NCI) Developmental Therapeutics Program Chemical Repository. The FDA-approved anticancer drug set is available from the NCI Developmental Therapeutics Program. […] The stock solutions were prepared in dimethyl sulfoxide (DMSO, Sigma-Aldrich, St. Louis, MO, cat. D2650) at 800-fold the tested concentration and stored at -70 degrees C prior to their use. All drugs and investigational agents were tested over a range starting from a high concentration at or near the clinical Cmax and decreasing in half-log increments. If the clinical Cmax for an agent had not been determined, the highest concentration tested was 10 microM.
Cell Culture. All cells were maintained in an incubator at 37 degrees C and 5% CO2 with 95% humidity. The PDC lines were cultured according to standard operating procedures established by the NCI PDMR. All PDCs were thawed and cultured in Matrigel-coated flasks prepared with a working solution of 1X Ham's F-12 nutrient mix, without supplementation (Invitrogen, Waltham, MA, cat. 11765054), 100 U/mL penicillin-streptomycin (Invitrogen, cat. 15140122), and 2.5% Matrigel (Corning Inc., Corning, NY, cat. 354248) for the first three passages. The 362531-283-R-J2-PDC and 782815-120-R-J1-PDC lines were cultured in 6C/Colon 1B media, which includes advanced DMEM/F-12 (Thermo Fisher Scientific, cat. 12634028), 10 mM HEPES (Thermo Fisher Scientific, cat. 15630080), 1X GlutaMAX supplement (Thermo Fisher Scientific, cat. 35050061), 0.1 mg/mL primocin (InvivoGen, San Diego, CA, cat. ant-pm-2), 10% defined fetal bovine serum, heat inactivated (HyClone Laboratories Inc., Logan, UT, cat. SH30070.03HI), 50% L-WRN conditioned media (ATCC, cat. CRL-3276), 1.25 mM N-Acetyl-L-cysteine (Sigma-Aldrich, cat. A9165), 10 mM nicotinamide (Sigma-Aldrich, cat. N0636), 1X B-27 supplement (Thermo Fisher Scientific, cat. 17504044), 1X N-2 supplement (Thermo Fisher Scientific, cat. 17502048), 50 ng/mL human EGF (Thermo Fisher Scientific, cat. PHG0311), and 10 microM Y-27632 dihydrochloride (Tocris Bioscience, cat. 1254). The K12877-001-R-J1-PDC line was cultured in 6I media, which includes all 6C/Colon 1B media plus 10 ng/mL human FGF-10 (PeproTech, cat. 100-26), 1 ng/mL human FGF-2 (PeproTech, cat. 100-18B), 1 µM prostaglandin E2 (Tocris Bioscience, cat. 2296), […] hydrocortisone (Sigma-Aldrich, cat. H4001), and […] bovine insulin (Sigma-Aldrich, cat. I6634). The K86415-001-R-J1-PDC line was cultured in 6D media, which includes all 6C/Colon 1B media components minus the L-WRN conditioned media. The 485176-168-R4-J1-PDC was cultured in PANC media, which includes all 6C/Colon 1B media plus 100 ng/mL human FGF-10 (PeproTech, cat. 100-26), 500 nM SB-431542 (Selleckchem, cat. S1067), and 10 nM gastrin (Tocris Bioscience, cat. 3006). […]

[1] = second compound 0.0316 µM, first compound 0.0316 µM
[2] = second compound 0.0316 µM, first compound 0.1 µM
[3] = second compound 0.0316 µM, first compound 0.316 µM
[4] = second compound 0.0316 µM, first compound 1 µM
[5] = second compound 0.1 µM, first compound 0.0316 µM
[6] = second compound 0.1 µM, first compound 0.1 µM
[7] = second compound 0.1 µM, first compound 0.316 µM
[8] = second compound 0.1 µM, first compound 1 µM
[9] = second compound 0.316 µM, first compound 0.0316 µM
[10] = second compound 0.316 µM, first compound 0.1 µM
[11] = second compound 0.316 µM, first compound 0.316 µM
[12] = second compound 0.316 µM, first compound 1 µM
[13] = second compound 1 µM, first compound 0.0316 µM
[14] = second compound 1 µM, first compound 0.1 µM
[15] = second compound 1 µM, first compound 0.316 µM
[16] = second compound 1 µM, first compound 1 µM
[17] = second compound 3.16 µM, first compound 0.0316 µM
[18] = second compound 3.16 µM, first compound 0.1 µM
[19] = second compound 3.16 µM, first compound 0.316 µM
[20] = second compound 3.16 µM, first compound 1 µM
[21] = second compound 10 µM, first compound 0.0316 µM
[22] = second compound 10 µM, first compound 0.1 µM
[23] = second compound 10 µM, first compound 0.316 µM
[24] = second compound 10 µM, first compound 1 µM

For `CC(Nc1ccc2c(c1)OCCn1cc(N3C(=O)OCC3C(F)F)nc1-2)C(N)=O` (centres undefined) + C#Cc1c(F)ccc2cc(O)cc(-c3ncc4c(N5CC6CCC(C5)N6)nc(OCC56CCCN5CC(F)C6)nc4c3F)c12, the IC50 (second compound 0.0316 µM) was > 10000 nM, the IC50 (second compound 0.1 µM) was > 10000 nM and the IC50 (second compound 0.316 µM) was > 10000 nM. For the same compound, the IC50 (second compound 1 µM) was > 10000 nM, the IC50 (second compound 3.16 µM) was 207 nM and the IC50 (second compound 10 µM) was < 31.6 nM. The viability, T/C [1] was 96.5%, the viability, T/C [2] was 112% and the viability, T/C [3] was 74.5%. The viability, T/C [4] was 70.5%, the viability, T/C (second compound 0.0316 µM, first compound 3.16 µM) was 62.9% and the viability, T/C (second compound 0.0316 µM, first compound 10 µM) was 74%. For the same compound, the viability, T/C [5] was 108%, the viability, T/C [6] was 119% and the viability, T/C [7] was 77.3%. For the same compound, the viability, T/C [8] was 69.3%, the viability, T/C (second compound 0.1 µM, first compound 3.16 µM) was 64.9% and the viability, T/C (second compound 0.1 µM, first compound 10 µM) was 71.2%. It also gave a viability, T/C [9] of 107%, a viability, T/C [10] of 107% and a viability, T/C [11] of 66.2%. For the same compound, the viability, T/C [12] was 66.8%, the viability, T/C (second compound 0.316 µM, first compound 3.16 µM) was 63.7% and the viability, T/C (second compound 0.316 µM, first compound 10 µM) was 60.9%. For the same compound, the viability, T/C [13] was 98.8%, the viability, T/C [14] was 86.5% and the viability, T/C [15] was 60.8%. It also gave a viability, T/C [16] of 54%, a viability, T/C (second compound 1 µM, first compound 3.16 µM) of 49.5% and a viability, T/C (second compound 1 µM, first compound 10 µM) of 63.8%. The viability, T/C [17] was 61.2%, the viability, T/C [18] was 63.6% and the viability, T/C [19] was 39.8%. It also gave a viability, T/C [20] of 40.4%, a viability, T/C (second compound 3.16 µM, first compound 3.16 µM) of 43.1% and a viability, T/C (second compound 3.16 µM, first compound 10 µM) of 48.1%. It also gave a viability, T/C [21] of 36.6%, a viability, T/C [22] of 38.7% and a viability, T/C [23] of 27.5%. The viability, T/C [24] was 23.4%, the viability, T/C (second compound 10 µM, first compound 3.16 µM) was 30.8% and the viability, T/C (second compound 10 µM, first compound 10 µM) was 24.2%.

With `O=C(c1ccc(F)c(F)c1Nc1ccc(I)cc1F)N1CC(O)([C@@H]2CCCCN2)C1` + C#Cc1c(F)ccc2cc(O)cc(-c3ncc4c(N5CC6CCC(C5)N6)nc(OCC56CCCN5CC(F)C6)nc4c3F)c12 the IC50 (second compound 0.0316 µM) was 82.6 nM, the IC50 (second compound 0.1 µM) was 77.3 nM and the IC50 (second compound 0.316 µM) was 73.2 nM. For the same compound, the IC50 (second compound 1 µM) was 68.3 nM, the IC50 (second compound 3.16 µM) was 15.4 nM and the IC50 (second compound 10 µM) was < 3.16 nM. It also gave a viability, T/C (second compound 0.0316 µM, first compound 0.00316 µM) of 108%, a viability, T/C (second compound 0.0316 µM, first compound 0.01 µM) of 105% and a viability, T/C [1] of 70.8%. For the same compound, the viability, T/C [2] was 44.1%, the viability, T/C [3] was 35.9% and the viability, T/C [4] was 19.1%. It also gave a viability, T/C (second compound 0.1 µM, first compound 0.00316 µM) of 103%, a viability, T/C (second compound 0.1 µM, first compound 0.01 µM) of 103% and a viability, T/C [5] of 65.1%. For the same compound, the viability, T/C [6] was 47.1%, the viability, T/C [7] was 30.9% and the viability, T/C [8] was 21.6%. The viability, T/C (second compound 0.316 µM, first compound 0.00316 µM) was 99.8%, the viability, T/C (second compound 0.316 µM, first compound 0.01 µM) was 112% and the viability, T/C [9] was 72.6%. The viability, T/C [10] was 42.5%, the viability, T/C [11] was 31.1% and the viability, T/C [12] was 20.4%. For the same compound, the viability, T/C (second compound 1 µM, first compound 0.00316 µM) was 91.2%, the viability, T/C (second compound 1 µM, first compound 0.01 µM) was 95.8% and the viability, T/C [13] was 60.4%. It also gave a viability, T/C [14] of 43.8%, a viability, T/C [15] of 34.4% and a viability, T/C [16] of 21.1%. It also gave a viability, T/C (second compound 3.16 µM, first compound 0.00316 µM) of 56.3%, a viability, T/C (second compound 3.16 µM, first compound 0.01 µM) of 58.7% and a viability, T/C [17] of 42.4%. It also gave a viability, T/C [18] of 40%, a viability, T/C [19] of 30.3% and a viability, T/C [20] of 17%. It also gave a viability, T/C (second compound 10 µM, first compound 0.00316 µM) of 36.5%, a viability, T/C (second compound 10 µM, first compound 0.01 µM) of 38.3% and a viability, T/C [21] of 31.6%. It also gave a viability, T/C [22] of 31.9%, a viability, T/C [23] of 22.1% and a viability, T/C [24] of 12.3%.
